For assay [1], the system named is MOLT-4. The assay can be described thus: Cell viability assay (MTS) in MOLT-4 cells. Particulars: Homo sapiens, MOLT-4, 48 hr, MTS, read-out: Anti-Cancer Activity IC50 (48 hr) MOLT-4. Type of assay: cell-based. On the procedure: (§1) Acute lymphoblastic leukemia cells (MOLT-4 and RS4; 11) were incubated with increasing concentrations of Bcl-xL degraders for 48 h. Cell viability was measured by tetrazolium-based MTS assay.

Assay [2] has as its system RS4; 11. Description: Cell viability assay (MTS) in RS4; 11 cells. Type of assay: cell-based. Particulars: Homo sapiens, RS4-11, 48 hr, MTS, read-out: Anti-Cancer Activity IC50 (48 hr) RS4, 11. Here is the method: as §1

Like-named read-outs stand apart in the source and are kept apart here.

The IC50 is the concentration needed to halve the response being measured. `Cc1ncsc1-c1ccc([C@H](C)NC(=O)[C@@H]2C[C@@H](O)CN2C(=O)[C@@H](NC(=O)CN2CCC(CC(=O)N3CCN(C[C@]4(C)CCC(c5ccc(Cl)cc5)=C(CN5CCN(c6ccc(C(=O)NS(=O)(=O)c7ccc(N[C@H](CCN8CCCOCC8)CSc8ccccc8)c(S(=O)(=O)C(F)(F)F)c7)cc6)CC5)C4)CC3)CC2)C(C)(C)C)cc1` [Compound 76]: the IC50 in assay [1] (Table 2) and in assay [2] (Table 2) was < 20 nM throughout.

On to `Cc1ncsc1-c1ccc([C@H](C)NC(=O)[C@@H]2C[C@@H](O)CN2C(=O)[C@@H](NC(=O)CCCCCNC(=O)c2cnc(N3CCN(C[C@]4(C)CCC(c5ccc(Cl)cc5)=C(CN5CCN(c6ccc(C(=O)NS(=O)(=O)c7ccc(N[C@H](CCN8CCCOCC8)CSc8ccccc8)c(S(=O)(=O)C(F)(F)F)c7)cc6)CC5)C4)CC3)nc2)C(C)(C)C)cc1` [Compound 78], for which the results for the IC50 in assay [1] (Table 2) and in assay [2] (Table 2) were < 20 nM and 20 to 100 nM, respectively.

For `Cc1ncsc1-c1ccc([C@H](C)NC(=O)[C@@H]2C[C@@H](O)CN2C(=O)[C@@H](NC(=O)CCCCCNC(=O)c2ccc(N3CCN(C[C@]4(C)CCC(c5ccc(Cl)cc5)=C(CN5CCN(c6ccc(C(=O)NS(=O)(=O)c7ccc(N[C@H](CCN8CCCOCC8)CSc8ccccc8)c(S(=O)(=O)C(F)(F)F)c7)cc6)CC5)C4)CC3)nn2)C(C)(C)C)cc1` [Compound 79], the IC50 in assay [1] (Table 2) and in assay [2] (Table 2) was < 20 nM throughout.

For `Cc1ncsc1-c1ccc([C@H](C)NC(=O)[C@@H]2C[C@@H](O)CN2C(=O)[C@@H](NC(=O)CCCCCNC(=O)c2ccc(CN3CCN(C[C@]4(C)CCC(c5ccc(Cl)cc5)=C(CN5CCN(c6ccc(C(=O)NS(=O)(=O)c7ccc(N[C@H](CCN8CCCOCC8)CSc8ccccc8)c(S(=O)(=O)C(F)(F)F)c7)cc6)CC5)C4)CC3)nc2)C(C)(C)C)cc1` [Compound 80], the concentration for half-maximal inhibition (IC50) in assay [1] (Table 2) and in assay [2] (Table 2) was < 20 nM in each case.

Consider `Cc1ncsc1-c1ccc([C@H](C)NC(=O)[C@@H]2C[C@@H](O)CN2C(=O)[C@@H](NC(=O)CCCCCCC(=O)N2CCN(C[C@]3(C)CCC(c4ccc(Cl)cc4)=C(CN4CCN(c5ccc(C(=O)NS(=O)(=O)c6ccc(N[C@H](CCN7CCCOCC7)CSc7ccccc7)c(S(=O)(=O)C(F)(F)F)c6)cc5)CC4)C3)C[C@H]2C)C(C)(C)C)cc1` [Compound 81], for which the IC50 in assay [1] (Table 2) and in assay [2] (Table 2) was < 20 nM each time.

Regarding `Cc1ncsc1-c1ccc([C@H](C)NC(=O)[C@@H]2C[C@@H](O)CN2C(=O)[C@@H](NC(=O)CCCCCCC(=O)N2CCN(C[C@]3(C)CCC(c4ccc(Cl)cc4)=C(CN4CCN(c5ccc(C(=O)NS(=O)(=O)c6ccc(N[C@H](CCN7CCCOCC7)CSc7ccccc7)c(S(=O)(=O)C(F)(F)F)c6)cc5)CC4)C3)C[C@@H]2C)C(C)(C)C)cc1` [Compound 82], the IC50 in assay [1] (Table 2) was < 20 nM; in assay [2] (Table 2), 20 to 100 nM.

Take `Cc1ncsc1-c1ccc([C@H](C)NC(=O)[C@@H]2C[C@@H](O)CN2C(=O)[C@@H](NC(=O)CCCCCCC(=O)N2CCN(C[C@]3(C)CCC(c4ccc(Cl)cc4)=C(CN4CCN(c5ccc(C(=O)NS(=O)(=O)c6ccc(N[C@H](CCN7CCCC(F)(F)C7)CSc7ccccc7)c(S(=O)(=O)C(F)(F)F)c6)cc5)CC4)C3)CC2)C(C)(C)C)cc1` [Compound 88]: the IC50 in assay [1] (Table 2) and in assay [2] (Table 2) was 500 to 10000 nM each time.

In the case of `Cc1ncsc1-c1ccc([C@H](C)NC(=O)[C@@H]2C[C@@H](O)CN2C(=O)[C@@H](NC(=O)CCCCCCC(=O)N2CCN(C[C@]3(C)CCC(c4ccc(Cl)cc4)=C(CN4CCN(c5ccc(C(=O)NS(=O)(=O)c6ccc(N[C@H](CCN7CCOC[C@H]7C)CSc7ccccc7)c(S(=O)(=O)C(F)(F)F)c6)cc5)CC4)C3)CC2)C(C)(C)C)cc1` [Compound 89, (2S,4R)-1-((S)-2-(8-(4-(((R)-4′-chloro-4-methyl-6-((4-(4-(((4-(((R)-4-((R)-3-methylmorpholino)-1-(phenylthio)butan-2-yl)amino)-3-((trifluoromethyl)sulfonyl)phenyl)sulfonyl)carbamoyl)phenyl)piperazin-1-yl)methyl)-2,3,4,5-tetrahydro-[1,1′-biphenyl]-4-yl)methyl)piperazin-1-yl)-8-oxooctanamido)-3,3-dimethylbutanoyl)-4-hydroxy-N—((S)-1-(4-(4-methylthiazol-5-yl)phenyl)ethyl)pyrrolidine-2-carboxamide], the IC50 is 20 to 100 nM in assay [1] (Table 2) and < 20 nM in assay [2] (Table 2).

As for `Cc1ncsc1-c1ccc([C@H](C)NC(=O)[C@@H]2C[C@@H](O)CN2C(=O)[C@@H](NC(=O)CCCCCCC(=O)N2CCN(C[C@]3(C)CCC(c4ccc(Cl)cc4)=C(CN4CCN(c5ccc(C(=O)NS(=O)(=O)c6ccc(N[C@H](CCN7CCOC(C)C7)CSc7ccccc7)c(S(=O)(=O)C(F)(F)F)c6)cc5)CC4)C3)CC2)C(C)(C)C)cc1` (stereo partly drawn) [Compound 91, (2S,4R)-1-((2S)-2-(8-(4-(((4R)-4′-chloro-4-methyl-6-((4-(4-(((4-(((2R)-4-(2-methylmorpholino)-1-(phenylthio)butan-2-yl)amino)-3-((trifluoromethyl)sulfonyl)phenyl)sulfonyl)carbamoyl)phenyl)piperazin-1-yl)methyl)-2,3,4,5-tetrahydro-[1,1′-biphenyl]-4-yl)methyl)piperazin-1-yl)-8-oxooctanamido)-3,3-dimethylbutanoyl)-4-hydroxy-N—((S)-1-(4-(4-methylthiazol-5-yl)phenyl)ethyl)pyrrolidine-2-carboxamide], the IC50 in assay [1] (Table 2) and in assay [2] (Table 2) was < 20 nM in each case.

For the compound `Cc1ncsc1-c1ccc([C@H](C)NC(=O)[C@@H]2C[C@@H](O)CN2C(=O)[C@@H](NC(=O)CCCCCCC(=O)N2CCN(C[C@]3(C)CCC(c4ccc(Cl)cc4)=C(CN4CCN(c5ccc(C(=O)NS(=O)(=O)c6ccc(N[C@H](CCN7CCOCC78CC8)CSc7ccccc7)c(S(=O)(=O)C(F)(F)F)c6)cc5)CC4)C3)CC2)C(C)(C)C)cc1` [Compound 92], the IC50 in assay [1] (Table 2) is 500 to 10000 nM; in assay [2] (Table 2), 20 to 100 nM.

Turning to `Cc1ncsc1-c1ccc([C@H](C)NC(=O)[C@@H]2C[C@@H](O)CN2C(=O)[C@@H](NC(=O)CCCCCCC(=O)N2CCN(C[C@]3(C)CCC(c4ccc(Cl)cc4)=C(CN4CCN(c5ccc(C(=O)NS(=O)(=O)c6ccc(N[C@H](CCN7CCOC8(CCC8)C7)CSc7ccccc7)c(S(=O)(=O)C(F)(F)F)c6)cc5)CC4)C3)CC2)C(C)(C)C)cc1` [Compound 93], the IC50 in assay [1] (Table 2) and in assay [2] (Table 2) was 500 to 10000 nM each time.

Take `Cc1ncsc1-c1ccc([C@H](C)NC(=O)[C@@H]2C[C@@H](O)CN2C(=O)[C@@H](NC(=O)CCCCCCC(=O)N2CCN(C[C@]3(C)CCC(c4ccc(Cl)cc4)=C(CN4CCN(c5ccc(C(=O)NS(=O)(=O)c6ccc(N[C@H](CCN7C[C@H]8COC[C@H]8C7)CSc7ccccc7)c(S(=O)(=O)C(F)(F)F)c6)cc5)CC4)C3)CC2)C(C)(C)C)cc1` [Compound 95]: the IC50 in assay [1] (Table 2) and in assay [2] (Table 2) was < 20 nM in each case.

On to `Cc1ncsc1-c1ccc([C@H](C)NC(=O)[C@@H]2C[C@@H](O)CN2C(=O)[C@@H](NC(=O)CCCCCCS(=O)(=O)N2CCN(C[C@]3(C)CCC(c4ccc(Cl)cc4)=C(CN4CCN(c5ccc(C(=O)NS(=O)(=O)c6ccc(N[C@H](CCN7CCCOCC7)CSc7ccccc7)c(S(=O)(=O)C(F)(F)F)c6)cc5)CC4)C3)CC2)C(C)(C)C)cc1` [Compound 96, (2S,4R)-1-((S)-2-(7-((4-(((R)-6-((4-(4-(((4-(((R)-4-(1,4-oxazepan-4-yl)-1-(phenylthio)butan-2-yl)amino)-3-((trifluoromethyl)sulfonyl)phenyl)sulfonyl)carbamoyl)phenyl)piperazin-1-yl)methyl)-4′-chloro-4-methyl-2,3,4,5-tetrahydro-[1,1′-biphenyl]-4-yl)methyl)piperazin-1-yl)sulfonyl)heptanamido)-3,3-dimethylbutanoyl)-4-hydroxy-N—((S)-1-(4-(4-methylthiazol-5-yl)phenyl)ethyl)pyrrolidine-2-carboxamide], for which the IC50 in assay [1] (Table 2) and in assay [2] (Table 2) was < 20 nM each time.

Take `Cc1ncsc1-c1ccc([C@H](C)NC(=O)[C@@H]2C[C@@H](O)CN2C(=O)[C@@H](NC(=O)CC(=O)N2CCC(S(=O)(=O)N3CCN(C[C@]4(C)CCC(c5ccc(Cl)cc5)=C(CN5CCN(c6ccc(C(=O)NS(=O)(=O)c7ccc(N[C@H](CCN8CCCOCC8)CSc8ccccc8)c(S(=O)(=O)C(F)(F)F)c7)cc6)CC5)C4)CC3)CC2)C(C)(C)C)cc1` [Compound 100]: the half-inhibitory concentration (IC50) is 100 to 500 nM in assay [1] (Table 2) and 20 to 100 nM in assay [2] (Table 2).

Turning to `Cc1ncsc1-c1ccc([C@H](C)NC(=O)[C@@H]2C[C@@H](O)CN2C(=O)[C@@H](NC(=O)CCS(=O)(=O)N2CCN(C[C@]3(C)CCC(c4ccc(Cl)cc4)=C(CN4CCN(c5ccc(C(=O)NS(=O)(=O)c6ccc(N[C@H](CCN7CCCOCC7)CSc7ccccc7)c(S(=O)(=O)C(F)(F)F)c6)cc5)CC4)C3)CC2)C(C)(C)C)cc1` [Compound 109], the results for the IC50 in assay [1] (Table 2A) and in assay [2] (Table 2A) were 100 to 500 nM and 20 to 100 nM, respectively.

For the compound `Cc1ncsc1-c1ccc([C@H](C)NC(=O)[C@@H]2C[C@@H](O)CN2C(=O)[C@@H](NC(=O)CCCCS(=O)(=O)N2CCN(C[C@]3(C)CCC(c4ccc(Cl)cc4)=C(CN4CCN(c5ccc(C(=O)NS(=O)(=O)c6ccc(N[C@H](CCN7CCCOCC7)CSc7ccccc7)c(S(=O)(=O)C(F)(F)F)c6)cc5)CC4)C3)CC2)C(C)(C)C)cc1` [Compound 110], the IC50 was 20 to 100 nM in assay [1] (Table 2A) and < 20 nM in assay [2] (Table 2A).

As for `Cc1ncsc1-c1ccc([C@H](C)NC(=O)[C@@H]2C[C@@H](O)CN2C(=O)[C@@H](NC(=O)COCCCNC(=O)c2ccc(N3CCN(C[C@]4(C)CCC(c5ccc(Cl)cc5)=C(CN5CCN(c6ccc(C(=O)NS(=O)(=O)c7ccc(N[C@H](CCN8CCCOCC8)CSc8ccccc8)c(S(=O)(=O)C(F)(F)F)c7)cc6)CC5)C4)CC3)nn2)C(C)(C)C)cc1` [Compound 111], the IC50 in assay [1] (Table 2A) and in assay [2] (Table 2A) was < 20 nM each time.
